# Laboratory results taken from patent US20180312473A1, “PHENAZINE DERIVATIVES AS ANTIMICROBIAL AGENTS” (priority 2015, published 2018).
# “And” between values parts separate entries of the source, which are not always exact repeats. Identical values can stand only once. Like-named read-outs stand apart in the source and are kept apart here.
# How the values were obtained:
# [1] = test system: Staphylococcus aureus and S. epidermidis; conditions: cited from earlier work
# MRSA BAA-44 = experiment: MIC assay (broth microdilution, CLSI); conditions: Staphylococcus aureus, read-out: MIC, MRSA BAA-44
# [2] = test system: Enterococcus faecium (ATCC 700221), VRE; experiment: MIC assay (broth microdilution, CLSI); format: cell-based
# [3] = test system: S. aureus clinical isolate SA 156; experiment: MIC assay (broth microdilution, CLSI); conditions: Staphylococcus aureus, read-out: MIC, SA 156
# in vitro = format: cell-based; conditions: human
# [4] = test system: methicillin-resistant S. aureus (MRSA) strains; experiment: MIC assay, values summarised over MRSA strains; format: cell-based, Staphylococcus aureus
# MRSA BAA-1707 = experiment: MIC assay (broth microdilution, CLSI); conditions: Staphylococcus aureus, read-out: MIC, MRSA BAA-1707
# [5] = test system: MRSA-2 (methicillin-resistant Staphylococcus aureus clinical isolate); experiment: MIC assay (broth microdilution, CLSI); format: cell-based; conditions: Staphylococcus aureus, MRSA, read-out: MIC, MRSA-2
# E. coli UAEC-1 = experiment: MIC assay (broth microdilution, CLSI); format: cell-based; conditions: Escherichia coli, UAEC1; read-out: E. coli UAEC-1 MIC
# [6] = test system: Staphylococcus epidermidis (ATCC 35984), MRSE; experiment: MIC assay (broth microdilution, CLSI); format: cell-based; conditions: Staphylococcus epidermidis
# [7] = test system: VRE (E. faecium ATCC 700221) planktonic cells and biofilms; experiment: Calgary Biofilm Device (CBD) assay, MBC/MBEC; format: cell-based, Enterococcus faecium; conditions: Enterococcus; Table 8; c lowest concentration tested; read-out: VRE 700221 MBC
# P. aeruginosa (PAO1) = experiment: MIC assay (broth microdilution, CLSI); format: cell-based; conditions: Pseudomonas aeruginosa, PAO1; read-out: PAO1 MIC
# human red blood cells = experiment: Hemolysis assay with red blood cells; conditions: human, 1 h, 200 μM, pH 7.2
# Method in brief: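 Hemolysis expressed as percent of the Triton X signal with DMSO as zero, using OD405 of supernatant. Compounds from DMSO stocks were incubated with triple-washed human erythrocytes for 1 hour at 37° C. before centrifugation; three independent experiments.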
# A. baumannii 19606 = experiment: MIC assay (broth microdilution, CLSI); format: cell-based, Acinetobacter baumannii; conditions: Acinetobacter baumannii, 19606; read-out: A. baumannii 19606 MIC
# [8] = Aqueous solubility under MIC assay conditions; format: physicochemical; conditions: MIC assay media, 37 °C, aqueous buffer; read-out: [aq. soluble]
# [9] = test system: S. aureus clinical isolate SA 129; experiment: MIC assay (broth microdilution, CLSI); conditions: Staphylococcus aureus, read-out: MIC, SA 129
# [10] = test system: Staphylococcus epidermidis (ATCC 12228); experiment: MIC assay (broth microdilution, CLSI); format: cell-based; conditions: Staphylococcus epidermidis
# [11] = test system: MRSA-1 (methicillin-resistant Staphylococcus aureus clinical isolate); experiment: MIC assay (broth microdilution, CLSI); format: cell-based; conditions: Staphylococcus aureus, MRSA, Table 11; read-out: MIC, MRSA-1
# [12] = test system: S. aureus clinical isolate SA 138; experiment: MIC assay (broth microdilution, CLSI); conditions: Staphylococcus aureus, read-out: MIC, SA 138
# K. pneumoniae 13883 = experiment: MIC assay (broth microdilution, CLSI); format: cell-based, Klebsiella pneumoniae; conditions: Klebsiella pneumoniae, 13883; read-out: K. pneumoniae 13883 MIC
# MRSA-2 = experiment: MIC assay with Tiron or metal(II) cation co-treatment; format: cell-based, Staphylococcus aureus; conditions: Staphylococcus aureus; MRSA-2, no additive (Table 9); read-out: MIC
# [13] = test system: M. tuberculosis H37Ra (ATCC 25177); experiment: Mycobacterium tuberculosis MIC assay; format: cell-based; conditions: Mycobacterium tuberculosis
# Method in brief: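 Culture diluted to OD600 0.01 and exposed to compounds in 0.5% final DMSO, each compound tested in three rows. Growth read as OD600 absorbance. Data from three independent experiments.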
smiles,measurement,setting,value
Oc1cccc2nc3ccccc3nc12 [1-hydroxyphenazine],activity against staphylococcal pathogens,[1]; earlier report,inactive
"Oc1c(Br)ccc2nc3ccccc3nc12 [Compound 1, 2-bromo-1-hydroxyphenazine]",MIC against S. aureus and S. epidermidis,[1]; earlier report of the group,6.25 μM and 1.7 μg/mL
Oc1ccc(Br)c2nc3cc(Cl)c(Cl)cc3nc12 [Compound 11],MIC,MRSA BAA-44,1.17 µM
same,MIC,"[2]; Enterococcus faecium, Table 2A, read-out: MIC, Enterococcus faecium (ATCC 700221)",6.25 µM
same,MIC,"[2]; Table 7, b lowest concentration tested, read-out: MIC, VRE 700221",6.25 µM
same,MIC,[3],1.17 µM
same,IC50 at 24 h,in vitro,> 100 µM
same,growth inhibition activity against at least one MRSA strain,[4],sub-micromolar
same,MIC,MRSA BAA-1707,0.3 µM
same,MIC,[5]; Table 2A,0.78 µM
same,MIC,"[5]; Table 7, a midpoint of 2-fold range, b lowest concentration tested",0.78 µM
same,MIC,E. coli UAEC-1,> 100 µM
same,MIC,"[6]; Table 2A, read-out: MIC, Staphylococcus epidermidis (ATCC 35984)",1.56 µM
same,MIC,"[6]; Table 7, read-out: MIC, MRSE 35984",1.56 µM
same,MBC,[7],100 µM
same,MIC,P. aeruginosa (PAO1),> 100 µM
same,% Hemolysis (200 μM),human red blood cells,2.7%
same,% Hemolysis at 200 μM,human red blood cells,2.7%
same,MIC,A. baumannii 19606,> 100 µM
same,solubility at 16 h,[8],200 µM
same,MIC,[9],0.78 µM
same,MIC,"[10]; ATCC12228, read-out: MIC, S. epidermidis 12228",3.13 µM
same,MIC,"[10]; ATCC12228, read-out: MIC, Staphylococcus epidermidis (ATCC 12228)",3.13 µM
same,MIC,[11],0.39 µM
same,MIC,[12],0.78 µM
same,MIC,K. pneumoniae 13883,> 100 µM
same,MIC,MRSA-2,0.78 µM
same,MIC,"[13]; Table 7, read-out: MIC, M. tuberculosis H37Ra",3.13 µM
same,MIC,"[13]; read-out: MIC, M. tuberculosis",~1 µg/mL
